According to patent US12558432B2, “Biocompatible polymeric drug carriers for delivering active agents” (CIS BIOPHARMA AG, priority 2019, dated 2026):

Tested on: cell culture
Assay: cell culture experiments (toxic effects)
Assay type: cell-based
Conditions: at concentrations of up to 5 mM

With `C=CC(=O)NCCCC[C@H](N)C(=O)O` [acryloyl-lysine, (S)-6-acrylamido-2-aminohexanoic acid] the “toxic effects in cell culture experiments” value was “do not exhibit any toxic effects”.
